Values quoted from earlier work in patent US20100291221A1, “Method of administering dose-sparing amounts of formoterol fumarate-budesonide combination particles by inhalation” (priority 2009, published 2010).

Legend:
adult asthmatics = conditions: inhaled
[1] = 9 ug Formoterol Fumarate alone (2 puffs); first treatment day

## COc1ccc(C[C@@H](C)NC[C@H](O)c2ccc(O)c(NC=O)c2)cc1.COc1ccc(C[C@@H](C)NC[C@H](O)c2ccc(O)c(NC=O)c2)cc1.O=C(O)/C=C/C(=O)O [Formoterol Fumarate, formoterol fumarate]
Adult asthmatics; adult asthmatics
  Minimum efficacy dose: approximately 4 micrograms
Adult asthmatics
  Level at which systemic b2 agonist effects begin to occur: above 12 micrograms
[1]
  Change in FEV1 at 15 minutes: 11%
  Change in FEV1 at 120 minutes: 18%
